Source: US7393864B2, “Use of ClC3 chloride channel blockers to modulate vascular tone” (University of Iowa Research Foundation, priority 1999, dated 2008)

Legend:
[1] = test system: swelling-induced Cl ion current in cultured human aortic and coronary vascular smooth muscle cells; assay: Whole-cell voltage-clamp of swelling-induced chloride current; assay type: cell-based; conditions: for Effect on swelling-induced Cl current: hypotonic conditions, whole-cell patch clamp, β-estradiol 10^−7 M, H-7 10^−5 M
Description: Electrophysiology. Chloride ion currents were measured from cultured human aortic and coronary vascular smooth muscle cells at room temperature (22-24° C. using standard whole-cell voltage-clamp techniques (Hamill et al., 1981; Lamb et al., 1994) and an Axopatch 200B patch-clamp amplifier driven by pClamp software (Axon Instruments). The hypotonic (250 mOsm/kg by freezing point depression) bath solution contained (mM): NaCl 125, MgCl2 2.5, CaCl2 2.5, HEPES 10, pH 7.2. Isotonic bath solution had the same ionic composition as the hypotonic solution except that the osmolality was adjusted to 300 mOsm/kg by adding mannitol. Pipette solution contained (mM): N′-methyl-D-glucamine chloride (NMDG—Cl) 135, EGTA 2, Mg-ATP 5, HEPES 10, pH 7.2 with osmolality adjusted to 300 mOsm/kg by adding mannitol. Thus, the chloride equilibrium potential remained 0 mV under both isotonic and hypotonic conditions. All components of the buffer solutions were obtained from Sigma. Pipette resistances were 3-5 MOhms.

[2] = test system: isolated aortic rings from male wild-type, heterozygote and Clcn3 knockout mice; assay: Dose-response to norepinephrine in isolated mouse aortic rings; conditions: L-NNA 10^−4 M, wild-type tissues, FIG. 17
Description: Animals were sacrificed by exposure to 100% CO2 for five minutes followed by cervical dislocation. Thoracic aortae were removed, cleaned of adherent connective tissue and cut into 4 rings. […] Contractile responses were recorded using a MacLab 8E and stored on a Power MacIntosh 6400/200 computer. Passive stretch was set at 5.0 mN and the rings were allowed to equilibrate in Physiologic Salt Solution (PSS) at 37° C. for 60 minutes prior to the start of experimentation.

Clcn3^−/− mice = assay: Recovery from sedatives in adult Clcn3-/- mice
erectile function = conditions: cited from earlier work
[3] = test system: Clcn3 knockout, heterozygous and wild type mice; assay: Pentylenetetrazole-induced seizure susceptibility; assay type: in vivo, mouse; conditions: PTZ 70 mg/kg i.p.
Description: The proconvulsant, pentylenetetrazole (PTZ), was dissolved at 7 mg/ml in sterile 0.9% NaCl and administered to drug-naive mice at 70 mg/kg i.p. in a quiet daytime laboratory setting. Parameters measured during the 15-minute observation period included time to onset of generalized tonic-clonic or tonic seizures, and duration of the first generalized seizure. Lethality was assessed 60 minutes post-injection (Loscher and Nolting, 1991).

[4] = test system: isolated rings of rat aorta; assay: Contractile response to ED80 norepinephrine or KCl in isolated rings of rat aorta (earlier studies, Lamb and Barna 1998); conditions: for Vasodilator effect in the presence of NE or KCl: denuded blood vessel segments; for Effect on contractile response to ED80 concentrations of NE or KCl: rings with intact endothelium
Excerpt: The above experiments were reported in Lamb and Barna, Am. J. Physiol., 275 H151 (1998) and Lamb and Barna, Am. J. Physiol., 275, 161 (1998), and are incorporated herein by reference.

[5] = test system: rat thoracic aorta rings (vascular smooth muscle), intact or denuded endothelium; assay: Norepinephrine-induced contraction of isolated aortic rings, isometric tension; conditions: 10 μM tamoxifen, FIG. 2
Description: Adult male Sprague-Dawley rats (250-300 g) were obtained from Harlan Sprague Dawley. The animals were killed by exposure to 100% CO2 for 5 minutes, followed by cervical dislocation. Thoracic aortas were removed, cleaned of adherent connective tissue, and cut into 6 mm rings. The endothelium was left intact, and the rings were mounted in individual 10 ml isolated organ chambers using standard methods for recording of isometric tension. Contractile responses were recorded with an eight-channel MacLab8E and stored on a Power Macintosh 7200 computer. Passive stretch was set at 2.5 g, and the rings were allowed to equilibrate in physiological salt solution (PSS) at 37° C. for 120 minutes before the start of experimentation. PSS was aerated with a mixture of 95% 2-5% CO2; the composition was as follows (in mM): 130 NaCl, 4.7 KCl, 1.18 KH2PO4, 1.17 MgSO47H2O, 14.9 NaHCO3, 1.6 CaCl2H2O, 5.5 dextrose, and 0.03 CaNa2-EDTA 0.03 (pH 7.30).
Intact and denuded aortic blood vessel segments were prepared, mounted as described in Example 1. • 2. […] Aliquots of NE (Sigma Chemical, St. Louis, Mo.), which had been dissolved directly into aqueous solution was applied to the vessel segments at concentrations between 10^−10 and 10^−5 M, and the contractile response measured as described above.

[6] = test system: isolated rings of rat aorta; conditions: vasculature with intact endothelium; Lamb and Barna 1998; cited from earlier work
[7] = test system: ion channel responsible for swelling-induced chloride conductance (CLC3); conditions: Duan et al. 1997; Nilius et al. 1994; cited from earlier work
[8] = test system: rat thoracic aorta rings (vascular smooth muscle), intact or denuded endothelium; assay: KCl-induced contraction of isolated aortic rings, isometric tension; conditions: 10 μM tamoxifen, FIG. 3
Description: Adult male Sprague-Dawley rats (250-300 g) were obtained from Harlan Sprague Dawley. The animals were killed by exposure to 100% CO2 for 5 minutes, followed by cervical dislocation. Thoracic aortas were removed, cleaned of adherent connective tissue, and cut into 6 mm rings. The endothelium was left intact, and the rings were mounted in individual 10 ml isolated organ chambers using standard methods for recording of isometric tension. Contractile responses were recorded with an eight-channel MacLab8E and stored on a Power Macintosh 7200 computer. Passive stretch was set at 2.5 g, and the rings were allowed to equilibrate in physiological salt solution (PSS) at 37° C. for 120 minutes before the start of experimentation. PSS was aerated with a mixture of […]; the composition was as follows (in mM): 130 NaCl, 4.7 KCl, 1.18 KH2PO4, 1.17 MgSO47H2O, 14.9 NaHCO3, 1.6 CaCl2H2O, 5.5 dextrose, and 0.03 CaNa2-EDTA 0.03 (pH 7.30).
Data were expressed as a percentage of the maximal response of each ring to the agonist.
• 1. Intact and denuded aortic blood vessel segments were prepared and mounted as described in Example 1. • 2. […] Cl (Sigma Chemical, St. Louis, Mo.), was applied to the vessels at 2, 4, 8, 12, 16, 20, 28, 40, 60, 80, and 100 mM concentrations, and the contractile response measured as described above.

**Q.** With `CC1CNCCN1S(=O)(=O)c1cccc2cnccc12` (stereo not drawn) [H-7] as the molecule, how does the “Effect on swelling-induced Cl current” value [1] read?
**A.** increased

**Q.** For `C[C@]12CC[C@@H]3c4ccc(O)cc4CC[C@H]3[C@@H]1CC[C@@H]2O` [β-estradiol], which “Swelling-induced Cl current (ICl)” value ([1]; hypotonic plus estradiol 10^−7 M, +120 mV, n=5, hypotonic only 1451±495 pA) is on record?
**A.** 3513±856 pA

**Q.** For `NC(=NCCC[C@H](N)C(=O)O)N[N+](=O)[O-]` [L-NNA], which “Responsiveness to norepinephrine when endothelial nitric oxide synthase is inhibited” value [2] is on record?
**A.** increase in responsiveness

**Q.** With `Cc1ncc2n1-c1ccc(Cl)cc1C(c1ccccc1F)=NC2` [midazolam] as the molecule, how does the “Recovery time from sedation” value (Clcn3^−/− mice) read?
**A.** prolonged recovery time

**Q.** For `CCCC(C)C1(CC)C(=O)NC(=O)NC1=O` (stereo not drawn) [pentobarbital], which “Recovery time from sedation” value (Clcn3^−/− mice) is on record?
**A.** prolonged recovery time

**Q.** What about the Incidence of death (Clcn3^−/− mice; even at reduced doses) of the same molecule?
**A.** increased incidence of death

**Q.** With `CN1CCc2cccc3c2[C@H]1Cc1ccc(O)c(O)c1-3` [apomorphine] as the molecule, how does the “Men returned to sexual potency” value (erectile function; men whose dysfunction had psychological origins) read?
**A.** about 70%

**Q.** What about the “Time to response following administration” value (erectile function; sublingual) of the same molecule?
**A.** 20 to 40 min

**Q.** Which “Mice with generalized seizures” value ([3]; Clcn3^+/+ mice (7/8)) does the source give for `C1CCc2nnnn2CC1` [PTZ, pentylenetetrazole] here?
**A.** 87.5%

**Q.** What about the “Onset of generalized seizures” value ([3]; Clcn3^+/+ mice) of the same molecule?
**A.** 280 ± 112 s

**Q.** And the “Mice with generalized seizures” value ([3]; Clcn3^+/− mice (13/15), 4-5 weeks old)?
**A.** 86.7%

**Q.** And the “Onset of generalized seizures” value ([3]; Clcn3^+/− mice)?
**A.** 215 ± 56 s

**Q.** What about the “Mice with seizure activity” value ([3]; Clcn3^−/− mice (1/8)) of the same molecule?
**A.** 12.5%

**Q.** What about the “Onset of seizure activity” value ([3]; Clcn3^−/− mice) of the same molecule?
**A.** 58 s

**Q.** Which “Vasodilator effect in the presence of NE or KCl” value [4] does the source give for `O=S(=O)(O)c1cc(N=C=S)ccc1C=Cc1ccc(N=C=S)cc1S(=O)(=O)O` [DIDS, 4,4′-diisothiocyanato stilbene-2,2′disulphonic acid] here?
**A.** persisted

**Q.** And the “Effect on contractile response to ED80 concentrations of NE or KCl” value [4]?
**A.** significantly inhibited

**Q.** With `O=C(O)c1cccnc1Nc1cccc(C(F)(F)F)c1` [niflumic acid] as the molecule, how does the “Vasodilator effect in the presence of NE or KCl” value [4] read?
**A.** persisted

**Q.** And the “Effect on contractile response to ED80 concentrations of NE or KCl” value [4]?
**A.** significantly inhibited

**Q.** With `CC/C(=C(\c1ccccc1)c1ccc(OCCN(C)C)cc1)c1ccccc1` [tamoxifen, 1-p-β-dimethylaminoethoxyphenyl-trans-1,2-diphenylbut-1-ene] as the molecule, how does the “Effect on NE sensitivity/contractility of endothelially compromised (denuded) vessel segments” value [5] read?
**A.** shifts the dose-response curve of NE back to the right

**Q.** And the Swelling-induced chloride current ([1]; hypotonic + H7 (10^−5 M) + tamoxifen, n=3, hypotonic 1204±313 pA)?
**A.** 878±493 pA

**Q.** What about the “Effect on swelling-induced Cl current” value [1] of the same molecule?
**A.** inhibited

**Q.** What about the “Effect on norepinephrine-induced contraction of normal vasculature” value [6] of the same molecule?
**A.** no effect

**Q.** And the “Block of ion channel responsible for swelling-induced chloride conductance” value [7]?
**A.** block

**Q.** What about the “Effect on KCl sensitivity/contractility of denuded vessel segments” value [8] of the same molecule?
**A.** corrects the increase in vascular smooth muscle sensitivity to KCl
